The record followed here is patent publication US12421242B2, “Substituted tetrahydropyrrolo-pyridinone compounds and their use in treating medical conditions” (Karuna Therapeutics, Inc., priority 2022, dated 2025).

Experiment [1] concerns the target T1, hM4 receptors (Homo sapiens, UniProt P08173).
T1 construct: expressed in transfected cells; host or cells: CHO cells
T1 sequence (P08173 1-479): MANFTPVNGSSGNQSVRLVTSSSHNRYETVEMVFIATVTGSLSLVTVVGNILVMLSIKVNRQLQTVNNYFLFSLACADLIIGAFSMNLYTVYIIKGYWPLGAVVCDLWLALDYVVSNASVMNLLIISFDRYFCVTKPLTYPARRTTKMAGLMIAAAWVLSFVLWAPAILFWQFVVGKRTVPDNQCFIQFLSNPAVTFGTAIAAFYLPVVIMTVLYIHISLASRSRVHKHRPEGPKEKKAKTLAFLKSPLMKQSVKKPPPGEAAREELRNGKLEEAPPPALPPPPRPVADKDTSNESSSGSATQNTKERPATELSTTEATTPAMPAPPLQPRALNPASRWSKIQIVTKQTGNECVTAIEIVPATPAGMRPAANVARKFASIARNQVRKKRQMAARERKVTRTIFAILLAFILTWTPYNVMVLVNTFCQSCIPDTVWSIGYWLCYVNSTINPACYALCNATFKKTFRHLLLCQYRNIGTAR
Nature of the experiment: Human M4 PAM pERK assay. The class given is cell-based. The note with it: PAM mode. The protocol:
(§1) Chinese hamster ovary (CHO) cells expressing either hM4 or rM4 receptors were frozen in assay ready vials (5×10^6 cells/vial) after bulking-up in culture. The day before an assay, vial(s) were thawed and cells seeded in 384 well white proxiplates at 1000/well for hM4 cells and at 2000/well for rM4 cells, in 10 μL of growth media (Hams/F12 with glutamax and 10% FCS) and incubated overnight at 37° C./5% CO2.
(§2) On the following morning, the growth media was removed by ‘flicking out’ over a bin, patting the inverted plate onto tissue, and then replacing with 10 μL of wash media (Hams/F12 with glutamax and 8 mM HEPES, NB: serum free). Then, the wash media was removed in the same way and replaced with 8 μL/well of the serum free media. Plates were then re-incubated for a further 4 hours at 37° C./5% CO2.
(§3) Compounds for testing were solubilized to 10 mM in DMSO and compound addition plates, consisting of ten-point concentration response curves (CRC) in duplicate points (10 μM top concentration, […]), were prepared by acoustic dispensing and the compound management group.
(§4) After the 4-hour incubation in serum free media, a 4 μL aliquot of the 3× compound solution containing an EC20 of acetylcholine (10 nM final concentration) was added to the cell plate using a 384 well plate to plate transfer. Then, the plate lid was replaced, and the cells incubated for 5 mins at 37° C./5% CO2. Following this final incubation, all cellular processes were stopped by the addition of 4 μL/well of lysis and blocking buffer and plates were incubated for 30 minutes at RT on an orbital shaker (gentle setting). Then, a final addition of 4 μL/well of antibody detection mix, containing both the Europium-Cryptate (donor) and d2 (acceptor) tagged detection components, was added followed by a further 2-hour incubation at RT, and then the plate was read using a TR-FRET (time resolved fluorescence resonance energy transfer) based protocol.

For experiment [2], the target named is T2, rM4 receptors (Rattus norvegicus, UniProt P08485).
T2 construct: expressed in transfected cells; host or cells: CHO cells
T2 sequence (P08485 1-478): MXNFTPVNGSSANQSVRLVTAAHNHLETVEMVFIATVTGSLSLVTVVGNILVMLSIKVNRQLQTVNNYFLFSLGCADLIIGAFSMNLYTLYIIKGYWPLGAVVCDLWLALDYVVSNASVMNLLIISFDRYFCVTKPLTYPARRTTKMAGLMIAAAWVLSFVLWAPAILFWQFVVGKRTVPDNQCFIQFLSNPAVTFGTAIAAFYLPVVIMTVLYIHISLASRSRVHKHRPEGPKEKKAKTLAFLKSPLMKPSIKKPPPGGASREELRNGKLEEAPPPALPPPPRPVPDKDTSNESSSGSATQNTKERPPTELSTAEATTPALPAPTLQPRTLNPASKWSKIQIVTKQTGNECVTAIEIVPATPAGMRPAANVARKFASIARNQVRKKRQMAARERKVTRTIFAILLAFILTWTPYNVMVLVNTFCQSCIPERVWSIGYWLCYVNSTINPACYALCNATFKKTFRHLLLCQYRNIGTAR
Briefly: Rat M4 PAM pERK assay. The class given is cell-based. Conditions: PAM mode. On the procedure: as §1, §2, §3, §4

Broadly, the EC50 is the midpoint of the concentration-response curve. Turning to `Cc1cc(=O)n(C)c2c1C(C)N(C(=O)c1ccc3nc(C(F)(F)F)sc3c1)C2` (single isomer, unassigned) [Compound I-101], the figures for the EC50 in experiment [1] and in experiment [2] were 100 to 500 nM and > 2000 nM, respectively.

Turning to `Cc1cc(=O)n(C)c2c1CN(C(=O)c1cnn(C)c1)C2C` (single isomer, unassigned) [Compound I-107, 1,4,7-Trimethyl-6-(1-methyl-1H-pyrazole-4-carbonyl)-1,5,6,7-tetrahydro-2H-pyrrolo[3,4-b]pyridin-2-one], the EC50 in experiment [1] and in experiment [2] was > 2000 nM throughout.

With `Cc1c2c(n(C)c(=O)c1Cl)CN(C(=O)c1cnn(C)c1)C2` [Compound I-2], the EC50 in experiment [1] was < 100 nM; in experiment [2], > 2000 nM.

For the molecule `Cc1c2c(n(C)c(=O)c1Cl)CN(C(=O)c1cn(C)cn1)C2` [Compound I-4], the EC50 is 500 to 2000 nM in experiment [1] and > 2000 nM in experiment [2].

In the case of `Cc1c2c(n(C)c(=O)c1Cl)CN(C(=O)c1cnn(CC(C)C)c1)C2` [Compound I-5], the EC50 is 500 to 2000 nM in experiment [1] and > 2000 nM in experiment [2].

Turning to `Cc1c2c(n(C)c(=O)c1Cl)CN(C(=O)c1ccc(C(C)(C)C)s1)C2` [Compound I-7], the half-maximal effective concentration (EC50) in experiment [1] was 500 to 2000 nM; in experiment [2] it was > 2000 nM.

In the case of `Cc1c2c(n(C)c(=O)c1Cl)CN(C(=O)c1cnn(C(C)C)c1)C2` [Compound I-10], the concentration giving a half-maximal response (EC50) in experiment [1] was 100 to 500 nM; in experiment [2], > 2000 nM.

Consider `Cc1c2c(n(C)c(=O)c1Cl)CN(C(=O)c1cn(C(F)(F)F)cn1)C2` [Compound I-15], for which the figures for the EC50 in experiment [1] and in experiment [2] were 100 to 500 nM and > 2000 nM, respectively.

`Cc1c2c(n(C)c(=O)c1Cl)CN(C(=O)c1ccn(C(F)(F)F)n1)C2` [Compound I-16]: the EC50 in experiment [1] was 100 to 500 nM; in experiment [2] it was > 2000 nM.

`Cc1c2c(n(C)c(=O)c1Cl)CN(C(=O)c1cnn(Cc3ccccc3)c1)C2` [Compound I-23]: the EC50 in experiment [1] was 100 to 500 nM; in experiment [2] it was 500 to 2000 nM.

Consider `Cc1c2c(n(C)c(=O)c1Cl)CN(C(=O)c1cn3c(n1)COCC3)C2` [Compound I-25], for which the EC50 was 500 to 2000 nM in experiment [1] and > 2000 nM in experiment [2].

As to `Cc1c2c(n(C)c(=O)c1Cl)CN(C(=O)c1cnn(CC3CC3)c1)C2` [Compound I-27], the values for the EC50 in experiment [1] and in experiment [2] were 500 to 2000 nM and > 2000 nM, respectively.

As to `Cc1c2c(n(C)c(=O)c1Cl)CN(C(=O)c1ncc3ccccn13)C2` [Compound I-31], the concentration for a half-maximal effect (EC50) in experiment [1] and in experiment [2] was > 2000 nM each time.

For the molecule `Cc1c2c(n(C)c(=O)c1Cl)CN(C(=O)c1cn3c(n1)CCC3)C2` [Compound I-33], the results for the EC50 in experiment [1] and in experiment [2] were 100 to 500 nM and > 2000 nM, respectively.

As for `Cc1c2c(n(C)c(=O)c1Cl)CN(C(=O)c1cnc(CC(C)C)s1)C2` [Compound I-34], the values for the EC50 in experiment [1] and in experiment [2] were 100 to 500 nM and 500 to 2000 nM, respectively.

With `Cc1c2c(n(C)c(=O)c1Cl)CN(C(=O)c1cnc(C3CCC3)s1)C2` [Compound I-35], the EC50 in experiment [1] was 100 to 500 nM; in experiment [2] it was > 2000 nM.

In the case of `Cc1c2c(n(C)c(=O)c1Cl)CN(C(=O)c1cnn3c1CCC3)C2` [Compound I-37], the 50% effective concentration (EC50) in experiment [1] and in experiment [2] was > 2000 nM in each case.

For `COCc1ncc(C(=O)N2Cc3c(C)c(Cl)c(=O)n(C)c3C2)s1` [Compound I-38], the 50% effective concentration (EC50) in experiment [1] was 100 to 500 nM; in experiment [2], > 2000 nM.

As for `Cc1c2c(n(C)c(=O)c1Cl)CN(C(=O)c1cnc(CC(F)(F)F)s1)C2` [Compound I-39], the EC50 in experiment [1] is 500 to 2000 nM; in experiment [2], > 2000 nM.

Take `Cc1c2c(n(C)c(=O)c1Cl)CN(C(=O)c1ccc3nonc3c1)C2` [Compound I-43]: the values for the EC50 in experiment [1] and in experiment [2] were 100 to 500 nM and 500 to 2000 nM, respectively.

As to `Cc1c2c(n(C)c(=O)c1Cl)CN(C(=O)c1ccc3ncsc3c1)C2` [Compound I-46], the EC50 in experiment [1] was < 100 nM; in experiment [2], 500 to 2000 nM.

Turning to `Cc1c2c(n(C)c(=O)c1Cl)CN(C(=O)c1ccc3cncn3c1)C2` [Compound I-47], the EC50 in experiment [1] is < 100 nM; in experiment [2] it was 500 to 2000 nM.

As for `Cc1c2c(n(C)c(=O)c1Cl)CN(C(=O)c1ccc3c(c1)COC3)C2` [Compound I-50], the EC50 in experiment [1] and in experiment [2] was 100 to 500 nM each time.

`Cc1c2c(n(C)c(=O)c1Cl)CN(C(=O)c1ccc3nc(C4CCC4)sc3c1)C2` [Compound I-51, 3-Chloro-6-(2-cyclobutylbenzo[d]thiazole-6-carbonyl)-1,4-dimethyl-1,5,6,7-tetrahydro-2H-pyrrolo[3,4-b]pyridin-2-one]: the EC50 was < 100 nM in experiment [1] and 100 to 500 nM in experiment [2].

Take `Cc1c2c(n(C)c(=O)c1Cl)CN(C(=O)c1cnn(CC3(C)COC3)c1)C2` [Compound I-53, 3-Chloro-1,4-dimethyl-6-(1-((3-methyloxetan-3-yl)methyl)-1H-pyrazole-4-carbonyl)-1,5,6,7-tetrahydro-2H-pyrrolo[3,4-b]pyridin-2-one]: the EC50 in experiment [1] and in experiment [2] was > 2000 nM throughout.

On to `Cc1c2c(n(C)c(=O)c1Cl)CN(C(=O)c1cnn(CC3COC3)c1)C2` [Compound I-54], for which the EC50 in experiment [1] is 100 to 500 nM; in experiment [2], > 2000 nM.

Take `Cc1c2c(n(C)c(=O)c1Cl)CN(C(=O)c1cnn(CC3CCCC3)c1)C2` [Compound I-55]: the EC50 is 100 to 500 nM in experiment [1] and > 2000 nM in experiment [2].

Take `Cc1c2c(n(C)c(=O)c1Cl)CN(C(=O)c1cnn(CC3CCOC3)c1)C2` (stereo not shown) [Compound I-56]: the EC50 in experiment [1] and in experiment [2] was > 2000 nM throughout.

`Cc1c2c(n(C)c(=O)c1Cl)CN(C(=O)c1cnn(Cc3ccc(C(F)(F)F)nc3)c1)C2` [Compound I-57]: the concentration giving a half-maximal response (EC50) in experiment [1] and in experiment [2] was > 2000 nM throughout.

With `Cc1c2c(n(C)c(=O)c1Cl)CN(C(=O)c1cc(CC(F)(F)F)on1)C2` [Compound I-58, 3-Chloro-1,4-dimethyl-6-(5-(2,2,2-trifluoroethyl)isoxazole-3-carbonyl)-1,5,6,7-tetrahydro-2H-pyrrolo[3,4-b]pyridin-2-one], the figures for the EC50 in experiment [1] and in experiment [2] were 500 to 2000 nM and > 2000 nM, respectively.

For the molecule `Cc1c2c(n(C)c(=O)c1Cl)CN(C(=O)c1cnn(Cc3cccnc3)c1)C2` [Compound I-59, 3-Chloro-1,4-dimethyl-6-(1-(pyridin-3-ylmethyl)-1H-pyrazole-4-carbonyl)-1,5,6,7-tetrahydro-2H-pyrrolo[3,4-b]pyridin-2-one], the half-maximal effective concentration (EC50) was 500 to 2000 nM in experiment [1] and > 2000 nM in experiment [2].

`Cc1c2c(n(C)c(=O)c1Cl)CN(C(=O)c1cnn(Cc3ccncc3)c1)C2` [Compound I-60]: the EC50 was 100 to 500 nM in experiment [1] and > 2000 nM in experiment [2].

Consider `Cc1c2c(n(C)c(=O)c1Cl)CN(C(=O)c1cnn(CC(F)(F)F)c1)C2` [Compound I-61], for which the EC50 in experiment [1] is 500 to 2000 nM; in experiment [2] it was > 2000 nM.

`Cc1c2c(n(C)c(=O)c1Cl)CN(C(=O)c1cnc(CC3CC3(F)F)s1)C2` (stereo not shown) [Compound I-65]: the EC50 is < 100 nM in experiment [1] and 500 to 2000 nM in experiment [2].

With `Cc1c2c(n(C)c(=O)c1Cl)CN(C(=O)c1cc(C(F)(F)F)n(C)c1)C2` [Compound I-68, 3-Chloro-1,4-dimethyl-6-(1-methyl-5-(trifluoromethyl)-1H-pyrrole-3-carbonyl)-1,5,6,7-tetrahydro-2H-pyrrolo[3,4-b]pyridin-2-one], the figures for the EC50 in experiment [1] and in experiment [2] were < 100 nM and 100 to 500 nM, respectively.
